The target in this assay is Complement factor D (Homo sapiens, UniProt P00746). Put plainly: Factor D Assay. As to the method: Human Factor D (purified from human serum, Complement Technology, Inc.) at 80 nM final concentration is incubated with test compound at various concentrations for 5 min at room temperature in 50 mM Tris, 1M NaCl, pH 7.5. A synthetic substrate Z-L-Lys-SBz and DTNB (Ellman's reagent) are added to final concentrations of 100 μM each. Absorbance at 405 nm (A405) is recorded at 30 second intervals for 30 min using a microplate spectrophotometer. IC50 values are calculated by nonlinear regression of complement Factor D reaction rates as a function of test compound concentration.
Complement factor D, sequence (P00746 whole entry): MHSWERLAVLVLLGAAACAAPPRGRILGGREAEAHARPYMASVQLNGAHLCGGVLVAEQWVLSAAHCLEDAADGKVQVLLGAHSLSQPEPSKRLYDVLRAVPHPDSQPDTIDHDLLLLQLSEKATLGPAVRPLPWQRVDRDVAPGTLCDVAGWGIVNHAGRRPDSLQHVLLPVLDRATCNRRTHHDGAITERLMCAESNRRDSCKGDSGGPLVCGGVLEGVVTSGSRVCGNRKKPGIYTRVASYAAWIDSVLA

Take `CC(=O)c1nn(CC(=O)N2C[C@H]3C[C@H]3[C@H]2C(=O)N2C[C@H]3C[C@H]3C2C(=O)Nc2nc(Br)ccc2C)c2c(C)cc(-c3cnc(C)nc3)cc12` (stereo partly specified) [US11084800, Cpd No. 92]: the IC50 – broadly, the midpoint of a concentration-inhibition curve – was “in the range around 5.5 µM”.

These data come from BindingDB's records for patent US11084800 (Achillion Pharmaceuticals, 2021).
